In ChEMBL document CHEMBL1155780, “Lack of aquaporin-4 water transport inhibition by antiepileptics and arylsulfonamides” (Bioorg Med Chem, 2008):

The compounds below were run against Aquaporin-4 (Homo sapiens) (UniProt P55087). Settings: FRT.
Chain of Aquaporin-4 (Homo sapiens) (P55087 whole entry): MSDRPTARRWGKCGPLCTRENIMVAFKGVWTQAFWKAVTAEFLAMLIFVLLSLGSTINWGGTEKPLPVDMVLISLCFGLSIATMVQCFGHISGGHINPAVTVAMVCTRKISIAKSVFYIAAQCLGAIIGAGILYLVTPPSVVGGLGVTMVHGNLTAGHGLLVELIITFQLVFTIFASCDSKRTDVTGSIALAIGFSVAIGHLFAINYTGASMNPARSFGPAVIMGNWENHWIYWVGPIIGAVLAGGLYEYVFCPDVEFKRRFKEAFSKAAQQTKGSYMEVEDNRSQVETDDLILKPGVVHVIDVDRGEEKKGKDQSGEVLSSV
Description: Inhibition of AQP4 expressed in rat FRT cells assessed as osmotic water permeability at 100 uM after 15 mins by stopped-flow light scattering method

SMILES | permeability [×10⁻⁶ cm/s]
CC(=O)Nc1ccc(S(N)(=O)=O)cc1 | 12900
CC1(C)O[C@@H]2[C@@H](CO[C@@]3(COS(N)(=O)=O)OC(C)(C)O[C@@H]23)O1 | 12900
CCOc1ccc2nc(S(N)(=O)=O)sc2c1 | 12900
CC(=O)Nc1nnc(S(N)(=O)=O)s1 | 12900
O=C1NC(=O)C(c2ccccc2)(c2ccccc2)N1 | 12900
NS(=O)(=O)Cc1noc2ccccc12 | 12900
CNS(=O)(=O)Cc1ccc2[nH]cc(CCN(C)C)c2c1 | 12900
